According to patent publication US10472347B2, “Aminopyrazine compounds with A2A antagonist properties” (Merck Sharp & Dohme Corp., priority 2014, dated 2019):

Each molecule was assayed against T1, human A2a receptor (Homo sapiens, UniProt P29274) (assay: A2a competition binding assay, Scintillation Proximity technology). Details: membranes from HEK293 cells expressing human A2a receptor; Ki by Cheng-Prusoff equation.
T1 construct: purchased Perkin-Elmer RBHA2AM400UA; host or cells: HEK293 cells (membranes)
T1 sequence (P29274 whole entry): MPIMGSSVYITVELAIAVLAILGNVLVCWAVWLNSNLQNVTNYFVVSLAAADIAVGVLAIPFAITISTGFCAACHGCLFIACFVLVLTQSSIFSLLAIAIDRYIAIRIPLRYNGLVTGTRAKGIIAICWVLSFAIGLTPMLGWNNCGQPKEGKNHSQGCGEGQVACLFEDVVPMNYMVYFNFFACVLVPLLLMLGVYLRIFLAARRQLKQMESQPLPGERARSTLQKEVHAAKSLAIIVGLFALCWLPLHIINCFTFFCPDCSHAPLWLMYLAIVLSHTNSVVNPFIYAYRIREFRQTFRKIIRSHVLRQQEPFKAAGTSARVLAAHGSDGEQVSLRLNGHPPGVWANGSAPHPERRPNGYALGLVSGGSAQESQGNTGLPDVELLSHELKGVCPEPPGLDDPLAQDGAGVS
How it was run: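 Membranes from HEK293 cells expressing human A2a, adenosine deaminase-treated, incubated 1 h at room temperature with compound (3000 to 0.15 nM) and 0.5 nM tritiated pyrazolotriazolopyrimidine radioligand on WGA SPA beads in Ca/Mg-free PBS + 10 mM MgCl2. Non-specific binding with 1 μM CGS15943; Ki by Cheng-Prusoff.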
A Ki of 0.382 nM was found for `COc1ccccc1CNC(=O)c1nc(C)c(-c2ncco2)nc1N` [Ex-144, 3-amino-N-(2-methoxybenzyl)-6-methyl-5-(1,3-oxazol-2-yl)pyrazine-2-carboxamide] in this work. A Ki of 0.601 nM was found for `Cc1nc(C(=O)N[C@H]2COc3ccccc32)c(N)nc1-c1ncco1` [Ex-147, 3-amino-N-[(3R)-2,3-dihydro-1-benzofuran-3-yl]-6-methyl-5-(1,3-oxazol-2-yl)pyrazine-2-carboxamide] in this work. A Ki of 15.8 nM was found for `COc1ccc(CNC(=O)c2nc(C)c(-c3ncco3)nc2N)cc1` [Ex-148, 3-amino-N-(4-methoxybenzyl)-6-methyl-5-(1,3-oxazol-2-yl)pyrazine-2-carboxamide] in this work. A Ki of 0.855 nM was found for `Cc1nc(C(=O)NCc2nc3ccccc3s2)c(N)nc1-c1ncco1` [Ex-149, 3-amino-N-(1,3-benzothiazol-2-ylmethyl)-6-methyl-5-(1,3-oxazol-2-yl)pyrazine-2-carboxamide] in this work. A Ki of 4.58 nM was found for `Cc1nc(C(=O)N2Cc3cncnc3C2)c(N)nc1-c1ncco1` [Ex-151, 3-(5,7-dihydro-6H-pyrrolo[3,4-d]pyrimidin-6-ylcarbonyl)-5-methyl-6-(1,3-oxazol-2-yl)pyrazin-2-amine] in this work. A Ki of 0.141 nM was found for `Cc1nc(C(=O)NCc2ccccc2O)c(N)nc1-c1ncco1` [Ex-153, 3-amino-N-(2-hydroxybenzyl)-6-methyl-5-(1,3-oxazol-2-yl)pyrazine-2-carboxamide] in this work. A Ki of 0.125 nM was found for `Cc1ccc(O)c(CNC(=O)c2nc(C)c(-c3ncco3)nc2N)c1` [Ex-154, 3-amino-N-(2-hydroxy-5-methylbenzyl)-6-methyl-5-(1,3-oxazol-2-yl)pyrazine-2-carboxamide] in this work. A Ki of 13.9 nM was found for `Cc1nc(C(=O)NCc2ccc(O)cc2)c(N)nc1-c1ncco1` [Ex-155, 3-amino-N-(4-hydroxybenzyl)-6-methyl-5-(1,3-oxazol-2-yl)pyrazine-2-carboxamide] in this work. A Ki of 68.9 nM was found for `Cc1nc(C(=O)N[C@@H]2c3ccccc3C[C@@H]2O)c(N)nc1-c1ncco1` [Ex-156, 3-amino-N-[(1R,2S)-2-hydroxy-2,3-dihydro-1H-inden-1-yl]-6-methyl-5-(1,3-oxazol-2-yl)pyrazine-2-carboxamide] in this work. A Ki of 0.601 nM was found for `Cc1nc(C(=O)N[C@@H]2COc3ccccc32)c(N)nc1-c1ncco1` [Ex-157, 3-amino-N-[(3S)-2,3-dihydro-1-benzofuran-3-yl]-6-methyl-5-(1,3-oxazol-2-yl)pyrazine-2-carboxamide] in this work. A Ki of 1.97 nM was found for `Cc1nc(C(=O)NCc2cccc(O)c2)c(N)nc1-c1ncco1` [Ex-158, 3-amino-N-(3-hydroxybenzyl)-6-methyl-5-(1,3-oxazol-2-yl)pyrazine-2-carboxamide] in this work. A Ki of 1.2 nM was found for `Cc1nc(C(=O)N[C@@H]2c3ccccc3C[C@H]2O)c(N)nc1-c1ncco1` [Ex-159, 3-amino-N-[(1R,2R)-2-hydroxy-2,3-dihydro-1H-inden-1-yl]-6-methyl-5-(1,3-oxazol-2-yl)pyrazine-2-carboxamide] in this work. A Ki of 264 nM was found for `Cc1nc(C(=O)NCc2nnc3n2CCC3)c(N)nc1-c1ncco1` [Ex-160, 3-amino-N-(6,7-dihydro-5H-pyrrolo[2,1-c][1,2,4]triazol-3-ylmethyl)-6-methyl-5-(1,3-oxazol-2-yl)pyrazine-2-carboxamide] in this work. A Ki of 0.293 nM was found for `Cc1nc(C(=O)NCc2n[nH]c3c2CCCCC3)c(N)nc1-c1ncco1` [Ex-161, 3-amino-N-(1,4,5,6,7,8-hexahydrocyclohepta[c]pyrazol-3-ylmethyl)-6-methyl-5-(1,3-oxazol-2-yl)pyrazine-2-carboxamide] in this work. A Ki of 0.333 nM was found for `Cc1nc(C(=O)NCc2nccc(F)c2C)c(N)nc1-c1ncco1` [Ex-162, 3-amino-N-[(4-fluoro-3-methylpyridin-2-yl)methyl]-6-methyl-5-(1,3-oxazol-2-yl)pyrazine-2-carboxamide] in this work. A Ki of 0.197 nM was found for `CCc1c(F)ccnc1CNC(=O)c1nc(C)c(-c2ncco2)nc1N` [Ex-163, 3-amino-N-[(3-ethyl-4-fluoropyridin-2-yl)methyl]-6-methyl-5-(1,3-oxazol-2-yl)pyrazine-2-carboxamide] in this work. A Ki of 1.29 nM was found for `Cc1nc(C(=O)NCc2nc3ccccc3[nH]2)c(N)nc1-c1ncco1` [Ex-164, 3-amino-N-(1H-benzimidazol-2-ylmethyl)-6-methyl-5-(1,3-oxazol-2-yl)pyrazine-2-carboxamide] in this work. A Ki of 0.599 nM was found for `CCn1ncnc1CNC(=O)c1nc(C)c(-c2ncco2)nc1N` [Ex-166, 3-amino-N-[(1-ethyl-1H-1,2,4-triazol-5-yl)methyl]-6-methyl-5-(1,3-oxazol-2-yl)pyrazine-2-carboxamide] in this work. A Ki of 0.158 nM was found for `CCOc1cccnc1CNC(=O)c1nc(C)c(-c2ncco2)nc1N` [Ex-167, 3-amino-N-[(3-ethoxypyridin-2-yl)methyl]-6-methyl-5-(1,3-oxazol-2-yl)pyrazine-2-carboxamide] in this work. A Ki of 0.375 nM was found for `Cc1nc(C(=O)NCc2ncc(F)cc2C2CC2)c(N)nc1-c1ncco1` [Ex-169, 3-amino-N-[(3-cyclopropyl-5-fluoropyridin-2-yl)methyl]-6-methyl-5-(1,3-oxazol-2-yl)pyrazine-2-carboxamide] in this work. A Ki of 0.482 nM was found for `Cc1nc(C(=O)NCc2nn(C)cc2C2CC2)c(N)nc1-c1ncco1` [Ex-170, 3-amino-N-[(4-cyclopropyl-1-methyl-1H-pyrazol-3-yl)methyl]-6-methyl-5-(1,3-oxazol-2-yl)pyrazine-2-carboxmamide] in this work. A Ki of 3.05 nM was found for `Cc1nc(C(=O)NCc2nccnc2F)c(N)nc1-c1ncco1` [Ex-172, 3-amino-N-[(3-fluoropyrazin-2-yl)methyl]-6-methyl-5-(1,3-oxazol-2-yl)pyrazine-2-carboxamide] in this work. A Ki of 0.191 nM was found for `CCOc1cccc(F)c1CNC(=O)c1nc(C)c(-c2ncco2)nc1N` [Ex-173, 3-amino-N-(2-ethoxy-6-fluorobenzyl)-6-methyl-5-(1,3-oxazol-2-yl)pyrazine-2-carboxamide] in this work. A Ki of 2.96 nM was found for `Cc1nc(C(=O)NCc2nn(C)c3c2CCC3)c(N)nc1-c1ncco1` [Ex-174, 3-amino-6-methyl-N-[(1-methyl-1,4,5,6-tetrahydrocyclopenta[c]pyrazol-3-yl)methyl]-5-(1,3-oxazol-2-yl)pyrazine-2-carboxamide] in this work. A Ki of 6.31 nM was found for `Cc1cncnc1CNC(=O)c1nc(C)c(-c2ncco2)nc1N` [Ex-175, 3-amino-6-methyl-N-[(5-methylpyrimidin-4-yl)methyl]-5-(1,3-oxazol-2-yl)pyrazine-2-carboxamide] in this work. A Ki of 0.217 nM was found for `Cc1nc(C(=O)NCc2nccc3ccccc23)c(N)nc1-c1ncco1` [Ex-178, 3-amino-N-(isoquinolin-1-ylmethyl)-6-methyl-5-(1,3-oxazol-2-yl)pyrazine-2-carboxamide] in this work. A Ki of 0.1 nM was found for `CCc1cccnc1CNC(=O)c1nc(C)c(-c2ncco2)nc1N` [Ex-179, 3-amino-N-[(3-ethylpyridin-2-yl)methyl]-6-methyl-5-(1,3-oxazol-2-yl)pyrazine-2-carboxamide] in this work. A Ki of 0.168 nM was found for `Cc1nc(C(=O)NCc2nccc(F)c2C2CC2)c(N)nc1-c1ncco1` [Ex-180, 3-amino-N-[(3-cyclopropyl-4-fluoropyridin-2-yl)methyl]-6-methyl-5-(1,3-oxazol-2-yl)pyrazine-2-carboxamide] in this work. A Ki of 1.3 nM was found for `Cc1nc(C(=O)NCc2cccc3c2ncn3CC(F)(F)F)c(N)nc1-c1ncco1` [Ex-181, 3-amino-6-methyl-5-(1,3-oxazol-2-yl)-N-{[1-(2,2,2-trifluoroethyl)-1H-benzimidazol-4-yl]methyl}pyrazine-2-carboxamide] in this work. A Ki of 2.7 nM was found for `Cc1nc(C(=O)NCc2ncc(C(F)(F)F)cc2C2CC2)c(N)nc1-c1ncco1` [Ex-182, 3-amino-N-{[3-cyclopropyl-5-(trifluoromethyl)pyridin-2-yl]methyl}-6-methyl-5-(1,3-oxazol-2-yl)pyrazine-2-carboxamide] in this work. A Ki of 6.72 nM was found for `Cc1cc(C(F)(F)F)cnc1CNC(=O)c1nc(C)c(-c2ncco2)nc1N` [Ex-183, 3-amino-6-methyl-N-{[3-methyl-5-(trifluoromethyl)pyridin-2-yl]methyl}-5-(1,3-oxazol-2-yl)pyrazine-2-carboxamide] in this work. A Ki of 0.208 nM was found for `Cc1nc(C(=O)NCc2nccnc2C2CC2)c(N)nc1-c1ncco1` [Ex-184, 3-amino-N-[(3-cyclopropyl-pyrazin-2-yl)methyl]-6-methyl-5-(1,3-oxazol-2-yl)pyrazine-2-carboxamide] in this work. A Ki of 4.25 nM was found for `Cc1cnc(CNC(=O)c2nc(C)c(-c3ncco3)nc2N)nc1` [Ex-185, 3-amino-6-methyl-N-[(5-methylpyrimidin-2-yl)methyl]-5-(1,3-oxazol-2-yl)pyrazine-2-carboxamide] in this work. A Ki of 0.181 nM was found for `COc1cccc(F)c1CNC(=O)c1nc(C)c(-c2ncco2)nc1N` [Ex-186, 3-amino-N-(2-fluoro-6-methoxybenzyl)-6-methyl-5-(1,3-oxazol-2-yl)pyrazine-2-carboxamide] in this work. A Ki of 0.449 nM was found for `CCc1nccnc1CNC(=O)c1nc(C)c(-c2ncco2)nc1N` [Ex-187, 3-amino-N-[(3-ethylpyrazin-2-yl)methyl]-6-methyl-5-(1,3-oxazol-2-yl)pyrazine-2-carboxamide] in this work. A Ki of 0.29 nM was found for `Cc1nc(C(=O)NCc2ncnn2C(C)C)c(N)nc1-c1ncco1` [Ex-188, 3-amino-6-methyl-N-{[1-(1-methylethyl)-1H-1,2,4-triazol-5-yl]methyl}-5-(1,3-oxazol-2-yl)pyrazine-2-carboxamide] in this work. A Ki of 1.03 nM was found for `Cc1nc(C(=O)NCc2cccc3c2ncn3C(C)C)c(N)nc1-c1ncco1` [Ex-189] in this work. A Ki of 12.3 nM was found for `Cc1nc2c(o1)CN(CCNC(=O)c1nc(C)c(-c3ncco3)nc1N)CC2` [Ex-190, 3-amino-6-methyl-N-[2-(2-methyl-6,7-dihydro[1,3]oxazolo[5,4-c]pyridin-5-(4H)-yl)ethyl]-5-(1,3-oxazol-2-yl)pyrazine-2-carboxamide] in this work. A Ki of 0.435 nM was found for `CCn1cnc2c(CNC(=O)c3nc(C)c(-c4ncco4)nc3N)cccc21` [Ex-193, 3-amino-N-[(1-ethyl-1H-benimidazol-4-yl)methyl]-6-methyl-5-(1,3-oxazol-2-yl)pyrazine-2-carboxamide] in this work.
